Experimental data: patent publication US9382215B2, “Therapeutic methods and agents for treating myotonic dystrophy” (The Board of Trustees of the University of Illinois, priority 2012, dated 2016)

Experiments:
[1] = biological target: T1, MBNL1-CUG interaction (Homo sapiens, UniProt Q9NR56); test: Electrophoretic mobility shift assay (EMSA) of inhibition of MBNL1-CUG interaction; assay type: biochemical
T1 construct: An expression vector for MBNL1N (1-272 aminoacids) was obtained from Maurice S. Swanson; hexahis; made in house
T1 sequence (Q9NR56 1-272): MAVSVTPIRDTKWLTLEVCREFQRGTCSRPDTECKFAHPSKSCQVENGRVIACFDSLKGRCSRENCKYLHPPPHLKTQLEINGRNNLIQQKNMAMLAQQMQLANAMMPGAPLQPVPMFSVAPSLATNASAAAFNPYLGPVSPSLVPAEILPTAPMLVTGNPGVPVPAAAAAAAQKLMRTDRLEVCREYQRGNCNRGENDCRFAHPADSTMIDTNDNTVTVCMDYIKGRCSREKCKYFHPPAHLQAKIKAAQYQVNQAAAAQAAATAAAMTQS
Protocol: (§1) RNA was labeled with [γ-^32P]ATP using T4 polynucleotide kinase (New England Biolabs). Labeled RNA (5 μL, 0.5 nM) was heated at 95° C. for 2 min and then placed on ice for 10 min and diluted to 125 μL in RNA storage buffer (66 mM NaCl, 6.7 mM MgCl2, and 27 mM Tris.HCl (pH 7.5). If required for the experiment, tRNA was added to the RNA solution to give a final concentration of approximately 8 μM. The protein (MBNL1N) was serially diluted in binding buffer (175 mM NaCl, 5 mM MgCl2, 20 mM Tris.HCl (pH 7.5), 1.25 mM BME, 12.5% glycerol, 2 mg/mL BSA, and 0.1 mg/mL heparin), and 5 μL of protein solution was added to 5 μL of RNA solution (Warf and Berglund, RNA, 2007, 13, 2238-2251). The reaction mixture was incubated at room temperature for 25 min and loaded onto a 6% polyacrylamide gel (80:1) at 4° C. The gels were run for 1 hour at 360V in 22.5 mM Tris-borate buffer (pH 8). Gels were visualized on a Molecular Dynamics Storm phosphorimager. The apparent Kd values were obtained by fitting fraction RNA bound versus protein concentration using the following equation: fraction bound=1/(1+(Kd/[P]T)). All binding measurements were performed with a greater than 10-fold excess of protein over RNA in each binding reaction used to determine the Kd so that [P] would be approximately equal to [P]total.
The inhibition of the MBNL1N-RNA complex was investigated using the above procedure except that the small molecule was added to the RNA-protein complex after 25 min of incubation. The reaction mixture was incubated for an additional 10-15 minutes at room temperature (˜23° C.). The inhibition assays were performed in the presence of 10% DMSO. To determine IC50 values, the free RNA versus small molecule concentration was fit to the equation: B=ΔB exp((−0.69/IC50)C)+Bf. B is the volume of the free RNA band in the gel, ΔB is the difference between the volumes of the free RNA bands at the lowest and highest concentrations of small molecule (Bi−Bf), C is the concentration of the small molecule, and IC50 is the concentration of small molecule at which B=(½ΔB)+Bf. […]

[2] = biological target: T2, MBNL1N-(CUG)4 RNA (Homo sapiens, UniProt Q9NR56); test: Inhibition of MBNL1N binding to (CUG)4 RNA in the presence of competitor tRNA; assay type: biochemical
T2 construct: An expression vector for MBNL1N (1-272 aminoacids) was obtained from Maurice S. Swanson; hexahis; made in house
T2 sequence (Q9NR56 1-272): T1 sequence (Q9NR56 1-272)
Protocol: as §1, with “[P]total. […]” for “[P]total.”

[3] = biological target: T3, MBNL1N-(CUG)12 RNA (Homo sapiens, UniProt Q9NR56); test: Inhibition of MBNL1N binding to (CUG)12 RNA in the presence of competitor tRNA; assay type: biochemical
T3 construct: An expression vector for MBNL1N (1-272 aminoacids) was obtained from Maurice S. Swanson; hexahis; made in house
T3 sequence (Q9NR56 1-272): T1 sequence (Q9NR56 1-272)
Protocol: as §1, with “[P]total. […]” for “[P]total.”

[4] = biological target: CTG repeats; test: Binding to CTG repeats
Protocol: (§2) Isothermal titration calorimetry measurements were performed at 25° C. on a MicroCal VP-ITC (MicroCal, Inc., Northampton, Mass.). A standard experiment consisted of titrating 10 μL of a 500 μM ligand from a 250 μL syringe (rotating at 300 rpm) into a sample cell containing 1.42 mL of a 20 μM DNA/RNA solution. The duration of the injection was set to 24 s, and the delay between injections was 300 s. The initial delay prior to the first injection was 60 s. To derive the heat associated with each injection, the area under each isotherm (microcalories per second versus seconds) was determined by integration by the graphing program Origin 5.0 (MicroCal, Inc. Northampton, Mass.). […] In many cases, additional sites are not detected by Job plot analysis and likely represent low-affinity sites. […]
(§3) A cell sample (250 μL) of 0.2 μM a compound of interest (in 20 mM MOPS pH 7.0, 300 mM NaCl) was excited at 310 nm (excitation slit of 4 nm) and emission recorded between 470-530 nm (emission slit of 8 nm) monitoring the maximum at 495 nm. […] The sample was then allowed to equilibrate for 15 min and the fluorescence emission recorded. The decrease in fluorescence with increased DNA/RNA was monitored until the binding sites became saturated and the fluorescence change was no longer evident. […]

[5] = biological target: CUG repeats; test: Binding to CUG repeats
Protocol: as §2, §3

[6] = Water solubility; assay type: physicochemical
[7] = tested on: 3T3 mouse fibroblast; test: Toxicity / cell viability in 3T3 mouse fibroblasts; assay type: cell-based
[8] = tested on: MBNL1-CUG foci; test: Confocal microscopy of MBNL1-CUG foci in HeLa cells transfected with GFP-MBNL1 and DMPK (CUG)960; assay type: cell-based; conditions: HeLa cells containing (CUG)960, confocal microscopy, preliminary results
Source text: In various embodiments, the compounds described herein can form MBNL1-CUG foci inside the nucleus for cells containing expanded CUG repeats.

[9] = Tolerability in mice, intraperitoneal injection; assay type: in vivo; conditions: mouse, in vivo, ip, mice, 5-100 mg/kg tested, read-out: maximum tolerated dose
Protocol: (§4) The compounds are found to be non-toxic among different cell types tested, including DM1 patient cells and 3T3 mouse fibroblasts. In one experiment, three mice each were evaluated at 5, 10, 20 50, and 100 mg/kg of compound 1, given by intraperitoneal injection.

[10] = tested on: mice; test: Tolerability in mice, intraperitoneal injection; assay type: in vivo; conditions: 100 mg/kg
Protocol: as §4

Compound: N=C(NCCCCNc1nc(N)nc(N)n1)c1ccc(C(=N)NCCCCNc2nc(N)nc(N)n2)cc1 [Compound 1, N^1,N^4-bis(4-((4,6-diamino-1,3,5-triazin-2-yl)amino)butyl)terephthalimidamide]
- IC50 ([1]; EMSA): 11 µM
- Ki ([1]; EMSA, read-out: inhibition constant (Ki) for MBNL1-CUG interaction): 0.177 µM
- inhibitory ability in EMSA screen compared to other inhibitor compounds (such as compound 5) ([1]; same concentration (100 μM)): significantly improved inhibitory ability
- Ki for inhibition of MBNL1N binding to (CUG)4 RNA [2]: low micromolar
- Ki for inhibition of MBNL1N binding to (CUG)12 RNA [3]: low micromolar
- affinity for CTG repeats [4]: high nanomolar affinity
- affinity for CUG repeats [5]: high nanomolar affinity
- water solubility [6]: improved water solubility
- toxicity towards mouse fibroblasts [7]: non-toxic
- cell viability ([7]; 100 μM, 3-day incubation): 100%
- disruption of MBNL1-CUG foci in the nucleus [8]: significant disruption of foci
- MTD [9]: 50 mg/kg
- mice exhibiting neurotoxicity [10]: two of three
